Our source for the IC50 values is US12692223B2, “Phenyl-sulfamoyl-benzoic acid derivatives as ERAP1-modulators” (GREY WOLF THERAPEUTICS LIMITED, priority 2021, dated 2026).

The structures appear in SMILES notation. Some results are limits rather than exact numbers.

T1 sequence (Q9NZ08 37-941): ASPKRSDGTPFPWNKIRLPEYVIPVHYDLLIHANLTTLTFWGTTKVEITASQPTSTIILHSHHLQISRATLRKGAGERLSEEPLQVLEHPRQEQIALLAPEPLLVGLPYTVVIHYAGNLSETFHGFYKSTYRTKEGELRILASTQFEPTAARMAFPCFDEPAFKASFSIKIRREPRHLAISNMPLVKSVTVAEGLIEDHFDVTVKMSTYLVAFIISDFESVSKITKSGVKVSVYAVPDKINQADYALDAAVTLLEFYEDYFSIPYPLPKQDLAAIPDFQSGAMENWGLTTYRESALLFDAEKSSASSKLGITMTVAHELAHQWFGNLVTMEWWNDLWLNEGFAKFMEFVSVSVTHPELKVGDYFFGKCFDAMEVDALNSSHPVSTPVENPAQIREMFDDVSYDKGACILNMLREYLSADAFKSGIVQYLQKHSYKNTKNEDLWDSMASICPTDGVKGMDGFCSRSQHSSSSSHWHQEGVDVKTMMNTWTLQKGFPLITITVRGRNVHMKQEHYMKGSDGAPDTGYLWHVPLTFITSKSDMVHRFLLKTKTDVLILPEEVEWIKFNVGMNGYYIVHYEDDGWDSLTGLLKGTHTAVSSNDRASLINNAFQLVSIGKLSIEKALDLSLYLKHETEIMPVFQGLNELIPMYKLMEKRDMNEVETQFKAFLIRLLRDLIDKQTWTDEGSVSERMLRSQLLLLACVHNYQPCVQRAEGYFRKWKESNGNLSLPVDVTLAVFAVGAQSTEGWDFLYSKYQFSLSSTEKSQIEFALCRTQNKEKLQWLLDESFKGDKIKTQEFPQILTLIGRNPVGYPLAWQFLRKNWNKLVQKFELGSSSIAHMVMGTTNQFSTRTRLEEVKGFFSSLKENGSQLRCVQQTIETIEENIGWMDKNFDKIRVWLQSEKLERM

This experiment concerns the target T1, ERAP1 (Homo sapiens, UniProt Q9NZ08).
T1 construct: Purified ERAP1(37-941)-10His (ERAP1)
Kind of experiment: ERAP1 mediated hydrolysis of an amide substrate measured in a biochemical system (10-mer inhibition assay). The following applies: purified ERAP1(37-941)-10His; 10-mer substrate; 23° C. for 1 h; excitation 279 nm, emission 355 nm; read-out: IC50 vs Decapeptide WRVYEKC(Dnp)ALK-acid (where Dnp is Dinitrophenyl maleimide) (10-mer). As to the method:
Biological Assay 1: ERAP1 Mediated Hydrolysis of an Amide Substrate Measured in a Biochemical System
• 1× Assay buffer (AB): 25 mM Bis-tris propane, 0.05% w/v • Hydroxypropylmethylcellulose pH 7.75 made with Optima grade water • Decapeptide WRVYEKC(Dnp)ALK-acid (where Dnp is Dinitrophenyl maleimide) (10-mer) • L-Leucine 7-amido-4-methylcoumarin (L-AMC) • Purified ERAP1(37-941)-10His (ERAP1) Assay Procedure:
12.5 μL ERAP1 enzyme in 1×AB was combined with 250 nL test compound in DMSO. 12.5 μL of either 240 μM L-AMC in 1×AB or 100 μM 10-mer in 1×AB was added to the reaction and incubated at 23° C. for 1 h. For detection, plates were read at excitation 365 nm and emission 442 nm (L-AMC) or excitation 279 nm and emission 355 nm (10-mer). Compound IC50 was determined using a 4-parameter equation.
As a reminder, the IC50 is the midpoint of a concentration-inhibition curve. In the case of `N#Cc1cc(NS(=O)(=O)c2cc(C(=O)O)ccc2C2CC2)c(OC2CC(F)(F)C2)cc1Cl` [Example 13, 3-(N-(4-chloro-5-cyano-2-(3,3-difluorocyclobutoxy)phenyl)sulfamoyl)-4-cyclopropylbenzoic acid], the IC50 lay in the range of 1 to 5 nM. `CC1CC(Oc2cc(Cl)c(C#N)cc2NS(=O)(=O)c2cc(C(=O)O)ccc2C2CC2)C1` (mixture of isomers) [Example 88, 3-(N-(4-chloro-5-cyano-2-(3-methylcyclobutoxy)phenyl)sulfamoyl)-4-cyclopropylbenzoic acid]: the IC50 is less than 1 nM. On to `CC1CC(Oc2cc(Cl)c(C#N)cc2NS(=O)(=O)c2cc(C(=O)O)ccc2C2CC2)C1` (single isomer, unassigned) [Example 115, 3-(N-(4-chloro-5-cyano-2-(3-methylcyclobutoxy)phenyl)sulfamoyl)-4-cyclopropylbenzoic acid], for which the IC50 is less than 1 nM. In the case of `N#Cc1cc(NS(=O)(=O)c2cc(C(=O)O)cc(F)c2C2CC2)c(OC2CCCC2)cc1Cl` [Example 18, 3-(N-(4-chloro-5-cyano-2-(cyclopentyloxy)phenyl)sulfamoyl)-4-cyclopropyl-5-fluorobenzoic acid], the IC50 was less than 1 nM. For the compound `N#Cc1cc(NS(=O)(=O)c2cc(C(=O)O)ccc2C2CC2)c(O[C@@H]2CCC[C@@H]2F)cc1Cl` [Example 73, 3-(N-(4-chloro-5-cyano-2-(((1R,2S)-2-fluorocyclopentyl)oxy)phenyl)sulfamoyl)-4-cyclopropylbenzoic acid], the IC50 was less than 1 nM. As for `CC1(COc2cc(Cl)c(C#N)cc2NS(=O)(=O)c2cc(C(=O)O)ccc2C2CC2)CCC1` [Example 27, 3-(N-(4-chloro-5-cyano-2-((1-methylcyclobutyl)methoxy)phenyl)sulfamoyl)-4-cyclopropylbenzoic acid], the IC50 is less than 1 nM. Turning to `COC1CCCC1Oc1cc(Cl)c(C#N)cc1NS(=O)(=O)c1cc(C(=O)O)ccc1C1CC1` (racemic) [Example 85, 3-(N-(4-chloro-5-cyano-2-((trans-2-methoxycyclopentyl)oxy)phenyl)sulfamoyl)-4-cyclopropylbenzoic acid], the IC50 is less than 1 nM. In the case of `N#Cc1cc(NS(=O)(=O)c2cc(C(=O)O)ccc2C2CC2)c(OC2CCC2)cc1Cl` [Example 12, 3-(N-(4-chloro-5-cyano-2-cyclobutoxyphenyl)sulfamoyl)-4-cyclopropylbenzoic acid], the IC50 is less than 1 nM. `N#Cc1cc(NS(=O)(=O)c2cc(C(=O)O)ccc2C2CC2)c(OC2CCC2O)cc1Cl` (racemic) [Example 113, 3-(N-(4-chloro-5-cyano-2-(cis-2-hydroxycyclobutoxy)phenyl)sulfamoyl)-4-cyclopropylbenzoic acid]: the IC50 was less than 1 nM. As for `CC1CCCC1Oc1cc(Cl)c(C#N)cc1NS(=O)(=O)c1cc(C(=O)O)ccc1C1CC1` (single isomer, unassigned) [Example 99, 3-(N-(4-chloro-5-cyano-2-((trans-2-methylcyclopentyl)oxy)-phenyl)sulfamoyl)-4-cyclopropylbenzoic acid], the IC50 was less than 1 nM. `N#Cc1cc(NS(=O)(=O)c2cc(C(=O)O)ccc2C2CC2)c(OC2CCCC2O)cc1Cl` (racemic) [Example 59, 3-(N-(4-chloro-5-cyano-2-((trans-2-hydroxycyclopentyl)oxy)phenyl)sulfamoyl)-4-cyclopropylbenzoic acid]: the IC50 is less than 1 nM. Regarding `N#Cc1cc(NS(=O)(=O)c2cc(C(=O)O)ccc2C2CC2)c(OC2CC3(COC3)C2)cc1Cl` [Example 52, 3-(N-(2-((2-oxaspiro[3.3]heptan-6-yl)oxy)-4-chloro-5-cyanophenyl)sulfamoyl)-4-cyclopropylbenzoic acid], the IC50 was greater than 5 nM. Take `CC1CCC1Oc1cc(Cl)c(C#N)cc1NS(=O)(=O)c1cc(C(=O)O)ccc1C1CC1` (single isomer, unassigned) [Example 120, 3-(N-(4-chloro-5-cyano-2-(2-methylcyclobutoxy)phenyl)sulfamoyl)-4-cyclopropylbenzoic acid]: the IC50 is less than 1 nM. Take `N#Cc1cc(NS(=O)(=O)c2cc(C(=O)O)ccc2C2CC2)c(OCC23C4C5C6C4C2C6C53)cc1Cl` (stereo not shown) [Example 79, 3-(N-(4-chloro-2-(cuban-1-ylmethoxy)-5-cyanophenyl)sulfamoyl)-4-cyclopropylbenzoic acid]: the IC50 was less than 1 nM. As to `N#Cc1cc(NS(=O)(=O)c2cc(C(=O)O)ccc2C2CC2)c(OC2CC3(CCC3)C2)cc1Cl` [Example 39, 3-(N-(4-chloro-5-cyano-2-(spiro[3.3]heptan-2-yloxy)phenyl)sulfamoyl)-4-cyclopropylbenzoic acid], the IC50 lay within 1 to 5 nM. Take `CC1(C)CCC1Oc1cc(Cl)c(C#N)cc1NS(=O)(=O)c1cc(C(=O)O)ccc1C1CC1` (stereo not shown) [Example 80, 3-(N-(4-chloro-5-cyano-2-(2,2-dimethylcyclobutoxy)phenyl)sulfamoyl)-4-cyclopropylbenzoic acid]: the IC50 is less than 1 nM. On to `O=C(O)c1ccc(C2CC2)c(S(=O)(=O)Nc2cc(-c3ccns3)c(F)cc2OC2CCCC2)c1` [Example 21, 3-(N-(2-(cyclopentyloxy)-4-fluoro-5-(isothiazol-5-yl)phenyl)sulfamoyl)-4-cyclopropylbenzoic acid], for which the IC50 was in the range of 1 to 5 nM.

On to `O=C(O)c1ccc(C2CC2)c(S(=O)(=O)Nc2cc(-c3ccns3)c(Cl)cc2OC2CCC2)c1` [Example 51, 3-(N-(4-chloro-2-cyclobutoxy-5-(isothiazol-5-yl)phenyl)sulfamoyl)-4-cyclopropylbenzoic acid], for which the IC50 was less than 1 nM.

Consider `CC1(Oc2cc(Cl)c(C#N)cc2NS(=O)(=O)c2cc(C(=O)O)ccc2C2CC2)CCCC1` [Example 81, 3-(N-(4-chloro-5-cyano-2-((1-methylcyclopentyl)oxy)phenyl)sulfamoyl)-4-cyclopropylbenzoic acid], for which the IC50 was less than 1 nM.

For `N#Cc1cc(NS(=O)(=O)c2cc(C(=O)O)ccc2C2CC2)c(OC2COC2)cc1Cl` [Example 66, 3-(N-(4-chloro-5-cyano-2-(oxetan-3-yloxy)phenyl)sulfamoyl)-4-cyclopropylbenzoic acid], the IC50 is greater than 5 nM. Take `C#CC1(Oc2cc(Cl)c(C#N)cc2NS(=O)(=O)c2cc(C(=O)O)ccc2C2CC2)CCCC1` [Example 30, 3-(N-(4-chloro-5-cyano-2-((1-ethynylcyclopentyl)oxy)phenyl)sulfamoyl)-4-cyclopropylbenzoic acid]: the IC50 lay within 1 to 5 nM.

For `N#Cc1cc(NS(=O)(=O)c2cc(C(=O)O)ccc2C2CC2)c(OC2CCC(C#N)C2)cc1Cl` (racemic) [Example 74, 3-(N-(4-chloro-5-cyano-2-((cis-3-cyanocyclopentyl)oxy)phenyl)sulfamoyl)-4-cyclopropylbenzoic acid], the IC50 was less than 1 nM. Take `N#Cc1cc(NS(=O)(=O)c2cc(C(=O)O)ccc2C2CC2)c(OC2CCC23CC3)cc1Cl` (single isomer, unassigned) [Example 107, 3-(N-(4-chloro-5-cyano-2-(spiro[2.3]hexan-4-yloxy)phenyl)-sulfamoyl)-4-cyclopropylbenzoic acid]: the IC50 was less than 1 nM. To `CO[C@H]1C[C@@H](Oc2cc(Cl)c(C#N)cc2NS(=O)(=O)c2cc(C(=O)O)ccc2C2CC2)C1` [Example 68, 3-(N-(4-chloro-5-cyano-2-(cis-3-methoxycyclobutoxy)phenyl)sulfamoyl)-4-cyclopropylbenzoic acid] belongs 1 to 5 nM; to `N#Cc1cc(NS(=O)(=O)c2cc(C(=O)O)ccc2C2CC2)c(OC2CCC(O)C2)cc1Cl` (racemic) [Example 110, 3-(N-(4-chloro-5-cyano-2-((cis-3-hydroxycyclopentyl)oxy)phenyl)sulfa-moyl)-4-cyclopropylbenzoic acid], less than 1 nM; to `CO[C@@H]1CCC[C@H]1Oc1cc(Cl)c(C#N)cc1NS(=O)(=O)c1cc(C(=O)O)ccc1C1CC1` [Example 109, 3-(N-(4-chloro-5-cyano-2-(((1R,2R)-2-methoxycyclopentyl)oxy)phenyl)sulfamoyl)-4-cyclopropylbenzoic acid], less than 1 nM. On to `N#Cc1cc(NS(=O)(=O)c2cc(C(=O)O)ccc2C2CC2)c(OC2CCC23CC3)cc1Cl` (single isomer, unassigned) [Example 106, 3-(N-(4-chloro-5-cyano-2-(spiro[2.3]hexan-4-yloxy)phenyl)-sulfamoyl)-4-cyclopropylbenzoic acid], for which the IC50 was less than 1 nM. Consider `N#Cc1cc(NS(=O)(=O)c2cc(C(=O)O)ccc2C2CC2)c(O[C@H]2C[C@@H](C#N)C2)cc1Cl` [Example 53, 3-(N-(4-chloro-5-cyano-2-(cis-3-cyanocyclobutoxy)phenyl)sulfamoyl)-4-cyclopropylbenzoic acid], for which the IC50 was 1 to 5 nM. Under `N#Cc1ccc(OC2CCCC2)c(NS(=O)(=O)c2cc(C(=O)O)ccc2C2CC2)c1` [Example 6, 3-(N-(5-cyano-2-(cyclopentyloxy)phenyl)sulfamoyl)-4-cyclopropylbenzoic acid] stands 1 to 5 nM. Turning to `O=C(O)c1ccc(C2CC2)c(S(=O)(=O)Nc2cc(-c3ccns3)c(Cl)cc2OC2CC(F)(F)C2)c1` [Example 50, 3-(N-(4-chloro-2-(3,3-difluorocyclobutoxy)-5-(isothiazol-5-yl)phenyl)sulfamoyl)-4-cyclopropylbenzoic acid], the half-inhibitory concentration (IC50) was less than 1 nM.

On to `N#Cc1cc(NS(=O)(=O)c2cc(C(=O)O)ccc2C2CC2)c(OCC23COC(C2)C3)cc1Cl` [Example 65, 3-(N-(2-((2-oxabicyclo[2.1.1]hexan-4-yl)methoxy)-4-chloro-5-cyanophenyl)sulfamoyl)-4-cyclopropylbenzoic acid], for which the IC50 lay in the range of 1 to 5 nM.
